Measurements as given in US20160244486A1, “AB Modulating Peptides” (ALZHYME PTY LTD, priority 2013, published 2016).
Square brackets hold non-standard residues; d marks the D form. Ends that are not written are not given here. Peptide text beside a SMILES is read from it. ξ: configuration not given here. ξT = CC(O)C(N)C(=O)O

Experiments:
[1] = In vitro peptide stability in 10% rat brain homogenate, RP-HPLC quantification; format: in vitro ADME; settings: 37° C.
Method: Peptides were prepared as a 1 mM solution in phosphate-buffered saline. 20 μl of the peptide solution was diluted in 10% rat brain homogenate (in 1× phosphate-buffered saline and 0.5% Triton X-100).
The solution was incubated at 37° C. for different times, and the reaction was stopped by adding the Complete mixture of protease inhibitors (Roche Molecular Biochemicals, Mannheim, Germany). For ANA5 and RI-ANA5, the bulk of the brain proteins (but not the peptides) were precipitated in cold methanol (1:4 (v/v) mixture/MeOH) for 1 hr at −20° C. The precipitated proteins were pelleted by centrifugation at 10,000 g for 10 min at 4° C. The supernatant containing the peptide was concentrated five times under vacuum and separated by RP-HPLC. Due to recovery issues with the longer ANA1 and RI-ANA1 peptides, samples were instead lyophilized and then reconstituted in a TFA solution, prior to separation by RP-HPLC.
The area of the peak (UV absorbance at 205 nm) corresponding to the intact peptide was measured and compared with an equivalent sample incubated in phosphate-buffered saline.
(iii) In vitro assay of peptide stability—Peptides were prepared as a 1 mM solution in PBS. 20 μl of the peptide solution was diluted in 10% rat brain homogenate (in PBS+0.5% Triton X-100). The solution was incubated at 37° C. for different times, and the reaction was stopped by adding the Complete mixture of protease inhibitors (Roche Molecular Biochemicals, Mannheim, Germany). For ANA5 and 9M S.A., the bulk of the brain proteins (but not the peptides) were precipitated in cold methanol (1:4 (v/v) mixture/methanol) for 1 h at −20° C. The precipitated proteins were pelleted by centrifugation (10.000 g, 10 min, 4° C.). The supernatant containing the peptide was concentrated five times under vacuum and separated by reversed-phase HPLC (RP-HPLC). Due to recovery issues with the longer ANA1 and RI-ANA1 peptides, samples were instead lyophilized, extracted in TFA, centrifuged to remove insoluble material and separated by RP-HPLC. The area of the peak (UV absorbance at 205 nm) corresponding to the intact peptide was measured and compared with an equivalent sample incubated in PBS.
Peptides were prepared as 1 mM solutions in PBS and diluted in 10% rat brain homogenate. Solutions were incubated at 37° C. for different times, and the reactions were stopped by addition of protease inhibitors. Samples were processed as described herein in the General Materials/Methods, separated by RP-HPLC and the level of intact peptide was determined at each time point.

amyloid plaques = assay: Ex vivo staining of amyloid plaques in brain tissue sections; settings: brain tissue from 8 month old 5× FAD AD model mice
Method: (x) Immunohistochemistry—Brains were obtained from 8 month old 5× FAD AD model mice Oakley, F-F et al (2006) or age-matched non-transgenic controls and post-fixed and embedded in the freezing medium as described in Drummond, E. S. et al (2013). Serial sagittal cryosections were cut at a thickness of 10 μm. Positive control staining for amyloid was performed using Thioflavin S (ThioS) as described in Youmans, K. L, et al (2012). After the removal of the freezing medium by serial changes of TBS pH 7.4, the slide was incubated for 1 h at room temperature in blocking buffer (10% goat serum in TBS). The slides were then stained with 1 μM TMR-labelled 15M S.A. peptide in 2% goat-serum-PBS for 2 hours at room temperature. Excess unbound peptide was removed prior to mounting by extensive washing with TBS. The coverslip was mounted using Prolong Gold mounting media (Life Technologies).
We investigated whether TMR-labelled 15M S.A. could be used to stain amyloid plaques ex vivo using brain tissue sections from AD model mice, in comparison with Thioflavin S (Thio S), which binds mature amyloid deposits and readily detects these plaques.

[2] = target: oligomeric Aβ42 (human synthetic Aβ42, pre-formed oligomers) (human) (UniProt P05067); assay: SPR (Biacore 3000), 15M S.A. immobilised on CM5, oAβ42 injected; 1:1 binding model with drifting baseline; overall estimate across the oligomer mixture
UniProt P05067, sequence (P05067 672-713 limits assumed): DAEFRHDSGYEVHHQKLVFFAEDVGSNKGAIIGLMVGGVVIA

## TNPNRRNRTPQMLKR [ANA1, Thr-Asn-Pro-Asn-Arg-Arg-Asn-Arg-Thr-Pro-Gln-Met-Leu-Lys-Arg]
[1]; time 0 min
  intact peptide amount: 25.8 µg
[1]; time 0 min, listed as 15mer
  intact peptide amount: 25.78 µg
[1]; time 15 min
  intact peptide amount: 5.6 µg
[1]; time 15 min, listed as 15mer
  intact peptide amount: 5.55 µg
[1]; time 30 min
  intact peptide amount: 0.03 µg
[1]; time 30 min, listed as 15 mer
  intact peptide amount: trace amounts
[1]; time 30 min, listed as 15mer
  intact peptide amount: 0.03 µg
[1]; time 300 min
  intact peptide amount: 0.02 µg

## CSCC[C@@H](NC(=O)[C@@H](CC(C)C)NC(=O)[C@@H](CCCCN)NC(=O)[C@H](N)CCCNC(=N)N)C(=O)N[C@H](CCC(N)=O)C(=O)N1CCC[C@@H]1C(=O)N[C@@H](C(=O)N[C@H](CCCNC(=N)N)C(=O)N[C@H](CC(N)=O)C(=O)O)[C@H](C)O [RI-ANA5, Arg-Lys-Leu-Met-Gln-Pro-Thr-Arg-Asn]
[1]; time 0 min
  intact peptide amount: 14 µg
[1]; time 0 min, listed as 9M S.A.
  intact peptide amount: 14.11 µg
[1]; time 15 min
  intact peptide amount: 12.35 µg
[1]; time 30 min
  intact peptide amount: 12.35 µg
[1]; time 300 min
  intact peptide amount: 12.5 µg
[1]; time 300 min, listed as 9M S.A.
  intact peptide amount: 12.51 µg

## NRTPQMLKR [ANA5, Asn-Arg-Thr-Pro-Gln-Met-Leu-Lys-Arg]
[1]; time 0 min
  intact peptide amount: 12 µg
[1]; time 0 min, listed as 9mer
  intact peptide amount: 12.00 µg
[1]; time 15 min
  intact peptide amount: 0.47 µg
[1]; time 30 min
  intact peptide amount: 0 µg
[1]; time 30 min, listed as 9 mer
  intact peptide amount: none
[1]; time 30 min, listed as 9mer
  intact peptide amount: 0 µg
[1]; time 300 min
  intact peptide amount: 0 µg

## Thioflavin S [Thio S]
Amyloid plaques
  staining of amyloid deposits: extensive plaques

## RI-ANA1 (Arg-Lys-Leu-Met-Gln-Pro-Thr-Arg-Asn-Arg-Arg-Asn-Pro-Asn-Thr, all D-amino acids) (peptide)
[2]
  Kd: 11 µM

## CSCC[C@@H](NC(=O)[C@@H](CC(C)C)NC(=O)[C@@H](CCCCN)NC(=O)[C@H](N)CCCNC(=N)N)C(=O)N[C@H](CCC(N)=O)C(=O)N1CCC[C@@H]1C(=O)NC(C(=O)N[C@H](CCCNC(=N)N)C(=O)N[C@H](CC(N)=O)C(=O)N[C@H](CCCNC(=N)N)C(=O)N[C@H](CCCNC(=N)N)C(=O)N[C@H](CC(N)=O)C(=O)N1CCC[C@@H]1C(=O)N[C@H](CC(N)=O)C(=O)NC(C(=O)O)C(C)O)C(C)O (stereo partly drawn) [RI-ANA1, Arg-Lys-Leu-Met-Gln-Pro-Thr-Arg-Asn-Arg-Arg-Asn-Pro-Asn-Thr] (H-[dR][dK][dL][dM][dQ][dP][ξT][dR][dN][dR][dR][dN][dP][dN][ξT]-OH; N-terminus and C-terminus assumed)
[1]; time 0 min
  intact peptide amount: 29.8 µg
[1]; time 0 min, listed as 15M S.A.
  intact peptide amount: 29.80 µg
[1]; time 15 min
  intact peptide amount: 27.8 µg
[1]; time 15 min, listed as 15M S.A.
  intact peptide amount: 27.80 µg
[1]; time 30 min
  intact peptide amount: 29.4 µg
[1]; time 30 min, listed as 15M S.A.
  intact peptide amount: 29.40 µg
[1]; time 300 min
  intact peptide amount: 33.5 µg
[1]; time 300 min, listed as 15M S.A.
  intact peptide amount: 33.50 µg
